This data set in a line: Motilin immunoreactivity concentration in plasma, half-life after intravenous administration (Example 8). To be noted: rat, in vivo, 10 nmol/kg. The method in brief: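 Male SD rats (7 weeks, n=3/group) received human motilin or derivative at 10 nmol/kg i.v. via tail vein; arterial blood was sampled up to 60 min, with EDTA and aprotinin added. Plasma motilin immunoreactivity was measured by competitive RIA using a rabbit polyclonal antibody against native motilin residues 1–12 and ^125I-[Tyr^7] human motilin tracer.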

This passage reports half-life results from US8551937B2, “Peptide having an extending action for half-life of object peptide in plasma” (priority 2008, dated 2013).

Read-outs that look alike come from different tables or passages of the source. Where a SMILES comes first, the peptide text is derived from it.

Regarding `CC[C@H](C)[C@H](NC(=O)[C@@H]1CCCN1C(=O)[C@@H](NC(=O)[C@@H](N)Cc1ccccc1)C(C)C)C(=O)N[C@@H](Cc1ccccc1)C(=O)N[C@H](C(=O)N[C@@H](Cc1ccc(O)cc1)C(=O)NCC(=O)N[C@@H](CCC(=O)O)C(=O)N[C@@H](CC(C)C)C(=O)N[C@@H](CCC(N)=O)C(=O)N[C@@H](CCCNC(=N)N)C(=O)N[C@H](C(=O)N[C@@H](CCC(N)=O)C(=O)N[C@@H](CCC(N)=O)C(=O)N[C@@H](CCCNC(=N)N)C(=O)N[C@@H](CCCCN)C(=O)NCC(=O)NCC(=O)N[C@@H](CCC(=O)O)C(=O)N[C@@H](CO)C(=O)NCC(=O)N[C@@H](CCCCN)C(=O)N[C@@H](CCCCN)C(=O)N1CCC[C@H]1C(=O)N1CCC[C@H]1C(=O)N[C@@H](C)C(=O)N[C@@H](CCCCN)C(=O)N[C@@H](CC(C)C)C(=O)N[C@@H](CCC(N)=O)C(=O)N1CCC[C@H]1C(=O)N[C@@H](CCCNC(=N)N)C(=O)O)C(C)C)[C@@H](C)O` [Chimeric motilin (III) (MG-i17G2-19iG)] (H-FVPIFTYGELQRVQQRKGGESGKKPPAKLQPR-OH; N-terminus and C-terminus assumed), under “male, SD, iv”, the half-life was determined as 10.7 min.
`CC[C@H](C)[C@H](NC(=O)[C@@H]1CCCN1C(=O)[C@@H](NC(=O)[C@@H](N)Cc1ccccc1)C(C)C)C(=O)N[C@@H](Cc1ccccc1)C(=O)N[C@H](C(=O)N[C@@H](Cc1ccc(O)cc1)C(=O)NCC(=O)N[C@@H](CCC(=O)O)C(=O)N[C@@H](CC(C)C)C(=O)N[C@@H](CCC(N)=O)C(=O)N[C@@H](CCCNC(=N)N)C(=O)N[C@@H](CCCCN)C(=O)N[C@@H](CCC(=O)O)C(=O)N[C@@H](CO)C(=O)N[C@@H](CCCCN)C(=O)N[C@@H](CCCCN)C(=O)N1CCC[C@H]1C(=O)N1CCC[C@H]1C(=O)N[C@@H](C)C(=O)N[C@@H](CCCCN)C(=O)N[C@@H](CC(C)C)C(=O)N[C@@H](C)C(=O)N[C@@H](C)C(=O)N[C@@H](CC(C)C)C(=O)N[C@@H](CCCCN)C(=O)N[C@@H](C)C(=O)O)[C@@H](C)O` [Chimeric motilin (XI) (MG-d12/14)] (H-FVPIFTYGELQRKESKKPPAKLAALKA-OH; N-terminus and C-terminus assumed) displayed a half-life (male, SD, iv) of 10.3 min.
`CC[C@H](C)[C@H](NC(=O)[C@@H]1CCCN1C(=O)[C@@H](NC(=O)[C@@H](N)Cc1ccccc1)C(C)C)C(=O)N[C@@H](Cc1ccccc1)C(=O)N[C@H](C(=O)N[C@@H](Cc1ccc(O)cc1)C(=O)NCC(=O)N[C@@H](CCC(=O)O)C(=O)N[C@@H](CC(C)C)C(=O)N[C@@H](CCC(N)=O)C(=O)N[C@@H](CCCNC(=N)N)C(=O)N[C@H](C(=O)N[C@@H](CCC(N)=O)C(=O)N[C@@H](CCC(N)=O)C(=O)N[C@@H](CCCNC(=N)N)C(=O)N[C@@H](CCCCN)C(=O)NCC(=O)N[C@@H](CCC(=O)O)C(=O)N[C@@H](CO)C(=O)N[C@@H](CCCCN)C(=O)N[C@@H](CCCCN)C(=O)N1CCC[C@H]1C(=O)N1CCC[C@H]1C(=O)N[C@@H](C)C(=O)N[C@@H](CCCCN)C(=O)N[C@@H](CC(C)C)C(=O)N[C@@H](CCC(N)=O)C(=O)N1CCC[C@H]1C(=O)N[C@@H](CCCNC(=N)N)C(=O)O)C(C)C)[C@@H](C)O` [Chimeric motilin (Z)(MG-i17G)] (H-FVPIFTYGELQRVQQRKGESKKPPAKLQPR-OH; N-terminus and C-terminus assumed): where the note is “male, SD, iv”, the half-life is 10.5 min.
In the case of `CC[C@H](C)[C@H](NC(=O)[C@@H]1CCCN1C(=O)[C@@H](NC(=O)[C@@H](N)Cc1ccccc1)C(C)C)C(=O)N[C@@H](Cc1ccccc1)C(=O)N[C@H](C(=O)N[C@@H](Cc1ccc(O)cc1)C(=O)NCC(=O)N[C@@H](CCC(=O)O)C(=O)N[C@@H](CC(C)C)C(=O)N[C@@H](CCC(N)=O)C(=O)N[C@@H](CCCNC(=N)N)C(=O)N[C@H](C(=O)N[C@@H](CCC(N)=O)C(=O)N[C@@H](CCC(N)=O)C(=O)N[C@@H](CCCCN)C(=O)N[C@@H](CCCNC(=N)N)C(=O)N[C@@H](CC(=O)O)C(=O)N[C@@H](CO)C(=O)N[C@@H](CCCNC(=N)N)C(=O)N[C@@H](CCCNC(=N)N)C(=O)N1CCC[C@H]1C(=O)N1CCC[C@H]1C(=O)N[C@@H](C)C(=O)N[C@@H](CCCCN)C(=O)N[C@@H](CC(C)C)C(=O)N[C@@H](CCC(N)=O)C(=O)N1CCC[C@H]1C(=O)N[C@@H](CCCNC(=N)N)C(=O)O)C(C)C)[C@@H](C)O` [Chimeric motilin (X)(MG-17E/D)] (H-FVPIFTYGELQRVQQKRDSRRPPAKLQPR-OH), the half-life (SD, intravenous, male rats, N = 3, read-out: T½ Mean Value) was 7.89 min.
For the compound `CC[C@H](C)[C@H](NC(=O)[C@@H]1CCCN1C(=O)[C@@H](NC(=O)[C@@H](N)Cc1ccccc1)C(C)C)C(=O)N[C@@H](Cc1ccccc1)C(=O)N[C@H](C(=O)N[C@@H](Cc1ccc(O)cc1)C(=O)NCC(=O)N[C@@H](CCC(=O)O)C(=O)N[C@@H](CC(C)C)C(=O)N[C@@H](CCC(N)=O)C(=O)N[C@@H](CCCNC(=N)N)C(=O)N[C@H](C(=O)N[C@@H](CCC(N)=O)C(=O)N[C@@H](CCC(N)=O)C(=O)N[C@@H](CCCNC(=N)N)C(=O)N[C@@H](CCCCN)C(=O)N[C@@H](CCC(=O)O)C(=O)N[C@@H](CO)C(=O)N[C@@H](CCCCN)C(=O)N[C@@H](CCCCN)C(=O)N[C@@H](C)C(=O)N[C@@H](CCCCN)C(=O)N[C@@H](CC(C)C)C(=O)N[C@@H](CCC(N)=O)C(=O)N1CCC[C@H]1C(=O)N[C@@H](CCCNC(=N)N)C(=O)O)C(C)C)[C@@H](C)O` [Chimeric motilin (IV)(MG-dPP)] (H-FVPIFTYGELQRVQQRKESKKAKLQPR-OH; N-terminus and C-terminus assumed), the half-life (iv) was found to be 7.73 min.
Where the note is “male, SD, iv”, `CC[C@H](C)[C@H](NC(=O)[C@@H]1CCCN1C(=O)[C@@H](NC(=O)[C@@H](N)Cc1ccccc1)C(C)C)C(=O)N[C@@H](Cc1ccccc1)C(=O)N[C@H](C(=O)N[C@@H](Cc1ccc(O)cc1)C(=O)NCC(=O)N[C@@H](CCC(=O)O)C(=O)N[C@@H](CC(C)C)C(=O)N[C@@H](CCC(N)=O)C(=O)N[C@@H](CCCNC(=N)N)C(=O)N[C@H](C(=O)N[C@@H](CCC(N)=O)C(=O)N[C@@H](CCC(N)=O)C(=O)N[C@@H](CCCNC(=N)N)C(=O)N[C@@H](CCCCN)C(=O)N[C@@H](CCC(=O)O)C(=O)N[C@@H](CO)C(=O)N[C@@H](CCCCN)C(=O)N[C@@H](CCCCN)C(=O)N1CCC[C@H]1C(=O)N1CCC[C@H]1C(=O)N[C@@H](C)C(=O)N[C@@H](CCC(=O)O)C(=O)N[C@@H](CC(C)C)C(=O)N[C@@H](C)C(=O)N[C@@H](C)C(=O)N[C@@H](CC(C)C)C(=O)N[C@@H](CCCCN)C(=O)N[C@@H](C)C(=O)O)C(C)C)[C@@H](C)O` [Chimeric motilin (VIII)(MG-H4)] (H-FVPIFTYGELQRVQQRKESKKPPAELAALKA-OH; N-terminus and C-terminus assumed) displayed a half-life of 11.6 min.
Compound `CC[C@H](C)[C@H](NC(=O)[C@@H]1CCCN1C(=O)[C@@H](NC(=O)[C@@H](N)Cc1ccccc1)C(C)C)C(=O)N[C@@H](Cc1ccccc1)C(=O)N[C@H](C(=O)N[C@@H](Cc1ccc(O)cc1)C(=O)NCC(=O)N[C@@H](CCC(=O)O)C(=O)N[C@@H](CC(C)C)C(=O)N[C@@H](CCC(N)=O)C(=O)N[C@@H](CCCNC(=N)N)C(=O)N[C@H](C(=O)N[C@@H](CCC(N)=O)C(=O)N[C@@H](CCC(N)=O)C(=O)N[C@@H](CCCNC(=N)N)C(=O)N[C@@H](CCCCN)C(=O)N[C@@H](CCC(=O)O)C(=O)N[C@@H](CO)C(=O)N[C@@H](CCCCN)C(=O)N[C@@H](CCCCN)C(=O)N[C@@H](C)C(=O)N[C@@H](CCCCN)C(=O)N[C@@H](CC(C)C)C(=O)N[C@@H](C)C(=O)N[C@@H](C)C(=O)N[C@@H](CC(C)C)C(=O)N[C@@H](CCCCN)C(=O)N[C@@H](C)C(=O)O)C(C)C)[C@@H](C)O` [Chimeric motilin (V) (MG-dPPH1)] (H-FVPIFTYGELQRVQQRKESKKAKLAALKA-OH; N-terminus and C-terminus assumed) gave a half-life (male, SD, iv) of 8.94 min.
